According to PubChem BioAssay (NCI):
Several values for one entry are separate records, joined by “and”; a condition that tells them apart may be missing. Identical values can stand only once.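 48-hour exposure; five concentrations; linearly interpolated endpoints. GI50 marks 50% less growth. At the TGI there is no net growth.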

Tests used:
Assay in all cases: NCI-60 cell line screen, 48 h
SN12C renal = tested on: SN12C renal
SW-620 colon = tested on: SW-620 colon
OVCAR-8 ovarian = tested on: OVCAR-8 ovarian
MDA-MB-231 breast = tested on: MDA-MB-231 breast
HOP-62 NSCLC = tested on: HOP-62 NSCLC
NCI-H522 lung = tested on: NCI-H522 lung
U251 CNS = tested on: U251 CNS
SNB-75 CNS = tested on: SNB-75 CNS
BT-549 breast = tested on: BT-549 breast
DMS 114 small cell lung = tested on: DMS 114 small cell lung

| SMILES | TGI (SN12C renal) | TGI (SW-620 colon) | TGI (OVCAR-8 ovarian) | TGI (MDA-MB-231 breast) | TGI (HOP-62 NSCLC) | TGI (NCI-H522 lung) | TGI (U251 CNS) | TGI (SNB-75 CNS) | TGI (BT-549 breast) | GI50 (SN12C renal) | GI50 (SW-620 colon) | GI50 (MDA-MB-231 breast) | GI50 (HOP-62 NSCLC) | GI50 (DMS 114 small cell lung) | TGI (DMS 114 small cell lung) | GI50 (BT-549 breast) |
| --- | --- | --- | --- | --- | --- | --- | --- | --- | --- | --- | --- | --- | --- | --- | --- | --- |
| O=C1NC(=O)C(C(CC(=O)c2ccc([N+](=O)[O-])cc2)c2ccccc2)C(=O)N1 (stereo not drawn) | > 100 µM | > 100 µM | > 100 µM | > 100 µM | > 100 µM | > 100 µM | > 100 µM | > 100 µM | > 100 µM | – | – | – | – | – | – | – |
| O=C(NCCCCCCCCCCCCNC(=O)Nc1cccc2ccccc12)Nc1cccc2ccccc12 | 31.6 µM | 33.1 µM | 53.6 µM | 35.9 µM | 20.1 µM | 28.9 µM | 31.8 µM | 32.7 µM | 31.4 µM | – | – | – | – | – | – | – |
| CCOP(=O)(/C=C\n1cc(C)c(=O)[nH]c1=O)OCC | > 100 µM | > 100 µM | > 100 µM | > 100 µM | > 100 µM | > 100 µM | > 100 µM | > 100 µM | > 100 µM | – | – | – | – | – | – | – |
| CCCCCCCC/C=C\CCCCCCC/C=C1\C[C@](/C=C/C(=O)OC)(CO)OC1=O | 4.01 µM | 3.78 µM | 8.5 µM | 6.6 µM | 9.18 µM | 8.61 µM | 5.92 µM | 4.59 µM | 7.15 µM | – | – | – | – | – | – | – |
| COC(=O)c1cc(=O)[nH]c(=O)[nH]1 | > 100 µM | > 100 µM | > 100 µM | > 100 µM | > 100 µM | > 100 µM | > 100 µM | > 100 µM | > 100 µM | – | – | – | – | – | – | – |
| O=c1[nH]nc(-c2ccccc2)n1/N=C\c1ccccc1 | > 100 µM | > 100 µM | > 100 µM | > 100 µM | > 100 µM | > 100 µM | > 100 µM | > 100 µM | > 100 µM | – | – | – | – | – | – | – |
| CSCSSC | > 100 µM | > 100 µM | > 100 µM | > 100 µM | > 100 µM | > 100 µM | > 100 µM | > 100 µM | > 100 µM | – | – | – | – | – | – | – |
| CN(C)c1nc(N)nc(CS)n1 | > 100 µM | > 100 µM | > 100 µM | > 100 µM | > 100 µM | > 100 µM | > 100 µM | > 100 µM | > 100 µM | – | – | – | – | – | – | – |
| Cc1cccc(Nc2nn3c(=O)c4c5c(sc4nc3s2)CCCC5)c1 | > 100 µM | > 100 µM | > 100 µM | > 100 µM | > 100 µM | > 100 µM | > 100 µM | 78.4 µM | 68.7 µM | – | – | – | – | – | – | – |
| [Cl][Sn]([c]1ccccc1)([c]1ccccc1)[c]1ccccc1 | 0.114 µM and 0.0651 µM | 0.104 µM and 0.0229 µM | – | 0.54 µM | 0.467 µM and 0.188 µM and 0.287 µM | – | – | – | 0.968 µM | 0.031 µM and 0.0142 µM | 0.0303 µM and < 0.01 µM | 0.216 µM | 0.21 µM and 0.0575 µM and 0.132 µM | 0.0237 µM and 0.0186 µM | 0.062 µM and 0.102 µM | 0.282 µM |
| CN(C)c1ccc(/C(F)=C(F)/C(F)=C(F)/C(F)=C(\F)c2ccc(Br)cc2)cc1 | > 25.5 µM | > 100 µM | > 96 µM | > 100 µM | > 100 µM | 27.1 µM | 44.7 µM | 92.9 µM | > 100 µM | – | – | – | – | – | – | – |
| CC(=O)NCCC1CN(C(=O)/C=C/I)c2ccccc21 (stereo not drawn) | 13.3 µM | 4.53 µM | 25.4 µM | 5.15 µM | 27.7 µM | 2.83 µM | 24.2 µM | 30.7 µM | 10.8 µM | – | – | – | – | – | – | – |
| Cc1ccc([S@](=O)c2occc2C=O)cc1 | 27.7 µM | 3.63 µM | 25.4 µM | 24.2 µM | 35.2 µM | 31.6 µM | 27.4 µM | 30.9 µM | 25.5 µM | – | – | – | – | – | – | – |
| C=C[C@@H](C)[C@H](NS(=O)(=O)c1ccc(C)cc1)C(=O)OCC | > 100 µM | > 100 µM | > 100 µM | > 100 µM | > 100 µM | 57.5 µM | 97.3 µM | 60.7 µM | > 100 µM | – | – | – | – | – | – | – |
| C/C=C/c1cc(=O)c([C@@H]2OC(=O)c3cc(OC)cc(OC)c32)co1 | – | > 100 µM | > 100 µM | – | > 100 µM | – | – | 60.3 µM | – | – | – | – | – | – | 56.6 µM | – |
| NC(=O)c1cccc([N+](=O)[O-])c1 | > 100 µM | > 100 µM | > 100 µM | – | > 100 µM | > 100 µM | > 100 µM | > 100 µM | – | – | – | – | – | – | > 100 µM | – |
| CCN(CC)N1C(=O)[N+](CC)(CC)N=C1[O-] | > 100 µM | > 100 µM | > 100 µM | > 100 µM | > 100 µM | > 100 µM | > 100 µM | > 100 µM | > 100 µM | – | – | – | – | – | – | – |
| CC1C(=O)N(c2ccccc2)NC12CCCc1ccccc12 (stereo not drawn) | > 100 µM | > 100 µM | > 100 µM | > 100 µM | > 100 µM | > 100 µM | > 100 µM | > 100 µM | > 100 µM | – | – | – | – | – | – | – |
| N#CC1(C#N)NC(c2cccs2)C(C#N)(C#N)NC1c1cccs1 (stereo not drawn) | > 100 µM | > 100 µM | > 100 µM | > 100 µM | > 100 µM | 88.4 µM | 64.5 µM | > 100 µM | 57.4 µM | – | – | – | – | – | – | – |
| CCCC(=O)NC(Nc1ccc(S(=O)(=O)Nc2cc(C)on2)cc1)(C(=O)OCC)C(F)(F)F (stereo not drawn) | > 100 µM | > 100 µM | > 100 µM | > 100 µM | > 100 µM | > 100 µM | > 100 µM | > 100 µM | > 100 µM | – | – | – | – | – | – | – |
